Results as given in patent US20260337162A1, “TRYPTAMINE COMPOUNDS, COMPOSITIONS, AND METHODS OF USE” (priority 2022, published 2026).

Columns and labels:
[1] = biological target: T1, 5-HT2A receptor (Homo sapiens, UniProt P28223); assay: 5-HT2A receptor functional screening assay (efficacy relative to maximal 5-HT response); assay type: cell-based; conditions: for activation at 0.5 µM: 500 nM
T1 construct: expressed in transfected cells
Description: (§1) 5-HT2 receptor-mediated Gq stimulation [phosphoinositide hydrolysis leading to the production of inositol phosphate 1 (IP1)]-canonical signaling pathways-were measured as previously described (Canal, C. E., Cordova-Sintjago, T., Liu, Y., Kim, M. S., Morgan, D., and Booth, R. G., 2013, Molecular pharmacology and ligand docking studies reveal a single amino acid difference between mouse and human serotonin 5-HT2A receptors that impacts behavioral translation of novel 4-phenyl-2-dimethylaminotetralin ligands, J Pharmacol Exp Ther 347, 705-716; Canal, C. E., Morgan, D., Felsing, D., Kondabolu, K., Rowland, N. E., Robertson, K. L., Sakhuja, R., and Booth, R. G., 2014, A Novel Aminotetralin-Type Serotonin (5-HT)(2C) Receptor —Specific Agonist and 5-HT2A Competitive Antagonist/5-HT2B Inverse Agonist with Preclinical Efficacy for Psychoses, J Pharm Exp Ther 349, 533), for example, with a homogeneous time-resolved fluorescence (HTRF) capable microplate reader (e.g., Mithras LB 940, Berthold) using commercially-available kits employing Fluorescence Resonance Energy Transfer (FRET) technology (e.g., IP-One HTRF (Cisbio) kits). Briefly, CHO-K1 or HEK293 cells expressing a single serotonergic 5-HT2 receptor subtype were incubated with test compounds and 5-HT or DOI (positive control) in stimulation buffer containing LiCl. After equilibration, the reaction was terminated with the donor and acceptor fluorescent conjugates in lysis buffer, and FRET was measured with a microplate reader (Berthold Mithras). Data were fit to non-linear curves to calculate potencies (e.g., EC50) and efficacies (e.g., EMAX), relative to positive controls (e.g., serotonin).

[2] = biological target: T1, 5-HT2A receptor; assay: Competition binding assay with [125I]DOI, 5-HT2A receptor; conditions: [125I]DOI radioligand; read-out: 5-HT2A affinity
Description: (§2) Binding affinity (Ki) and functional potency and efficacy (EC50 and EMAX) values of the compounds were measured.

[3] = in vitro; assay type: in vitro ADME, Male Sprague-Dawley rat; conditions: rat liver microsomes 0.5 mg/mL, 1 mM NADPH, test compound 1 μM, pH 7.4, 37° C.; read-out: RLM, t1/2
Description: Male Sprague-Dawley rat liver microsomes were purchased from XenoTech. The reaction mixture, minus NADPH, was prepared as described below. The test compound was added into the reaction mixture at a final concentration of 1 μM. The control compound, testosterone, was run simultaneously with the test compound in a separate reaction. The reaction mixture (without cofactor) was equilibrated in a shaking water bath at 37° C. for 5 minutes. The reaction was initiated by the addition of the cofactor, and the mixture was incubated in a shaking water bath at 37° C. Aliquots (150 μL) were withdrawn at 0, 5, 10, 20, 30, 60, and 120 minutes. Test compound and testosterone samples were immediately combined with 150 μL of ice-cold acetonitrile (ACN) containing 0.1% formic acid and internal standard to terminate the reaction. The samples were then mixed and centrifuged to precipitate proteins. All samples were assayed by LC-MS/MS using electrospray ionization. The peak area response ratio (PARR) of analyte to internal standard at each time point was compared to the PARR at time 0 to determine the percent remaining at each time point. Half-lives were calculated using GraphPad software, fitting to a single-phase exponential decay equation.

[4] = biological target: T2, human serotonin 5-HT2A receptor (Homo sapiens, UniProt P28223); assay: Radioligand ([3H]LSD) competition binding, 5-HT2A receptor; conditions: in words; up to 10 μM for partial competition
T2 construct: host or cells: HEK293 (ATCC CRL-1573)
T2 sequence (P28223 whole entry): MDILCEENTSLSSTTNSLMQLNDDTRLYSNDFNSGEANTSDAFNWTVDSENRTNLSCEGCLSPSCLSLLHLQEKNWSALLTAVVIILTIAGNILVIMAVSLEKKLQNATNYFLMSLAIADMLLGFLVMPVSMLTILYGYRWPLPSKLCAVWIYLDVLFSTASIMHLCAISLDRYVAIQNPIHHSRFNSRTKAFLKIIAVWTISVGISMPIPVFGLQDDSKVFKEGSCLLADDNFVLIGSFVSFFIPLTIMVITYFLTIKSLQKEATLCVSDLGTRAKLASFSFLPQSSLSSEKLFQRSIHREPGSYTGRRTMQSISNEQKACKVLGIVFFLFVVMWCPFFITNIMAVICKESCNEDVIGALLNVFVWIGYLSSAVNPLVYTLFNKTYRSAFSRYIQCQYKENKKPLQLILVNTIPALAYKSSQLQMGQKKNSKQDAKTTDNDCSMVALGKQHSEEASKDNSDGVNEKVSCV
Description: as §2
Radioligand competition binding was performed as previously described (Saraf, T. S., Felsing, D. E., Armstrong, J. L., Booth, R. G., and Canal, C. E., 2021, Evaluation of lorcaserin as an anticonvulsant in juvenile Fmr1 knockout mice, Epilepsy Res 175, 106677), with minor modifications, using human cloned 5-HT2A receptors. Plasmids encoding human serotonin 5-HT2A receptor cDNA were procured from the cDNA Resource Center. Human embryonic kidney cells (HEK293, ATCC CRL-1573) were grown in a cell incubator in 100 mm dishes with antibiotic-free Dulbecco's modified Eagle's medium containing 10% fetal bovine serum. Cells were transfected at ~85% confluency with 5-15 μg cDNA using TransIT-2020 reagent (Mirus Bio, Madison, Wisconsin). After approximately 48 hours, cell membrane was collected via centrifugation. For all experiments, serotonin (5-HT) hydrochloride was used as a positive control, and mianserin hydrochloride (10 μM) was used to define non-specific binding. Each cell membrane homogenate expressing 5-HT2A receptors was incubated at room temperature in 96-well plates with [^3H] […] Following equilibration, each sample was filtered rapidly under vacuum through fiberglass filters presoaked in a buffer and washed by vacuum several times with an ice-cold buffer. Filters were soaked with scintillation fluid and counts per minute were detected using photodetectors (Microbeta Scintillation Counter). […] Data shown are the results from all experiments combined. As is known, G protein-coupled receptors, including the 5-HT2A receptor, can exist in multiple conformations, and ligands, typically agonist ligands, have unique affinities for these conformations of the receptor (Kenakin, T. Theoretical Aspects of GPCR-Ligand Complex Pharmacology, Chem. Rev. 2017, 117, 1, 4-20). […] However, for simplicity reasons, affinity of these compounds are reported herein as fitted to the single-site model. The data point for −10 samples is total specific binding (no compound present), and −4 was interpolated to complete the binding curves to 0 specific binding.

[5] = humans (TIHKAL; Erowid); cited from earlier work
[6] = test system: 5-HT2A receptor; assay: Head-twitch response (HTR) and behavioral observation in mice; assay type: in vivo, adult, male C57BL/6J mice; conditions: 10 mg/kg PO, mice
Description: The HTR assay was performed in adult, male C57BL/6J mice, procured from the Jackson Laboratory (Bar Harbor, Maine), as previously described (Canal, C. E., and Morgan, D., 2012, Head-twitch response in rodents induced by the hallucinogen 2,5-dimethoxy-4-iodoamphetamine: a comprehensive history, a re-evaluation of mechanisms, and its utility as a model, Drug Test Anal 4, 556-576; Saraf, T. S., Felsing, D. E., Armstrong, J. L., Booth, R. G., and Canal, C. E., 2021, Evaluation of lorcaserin as an anticonvulsant in juvenile Fmr1 knockout mice, Epilepsy Res 175, 106677). Mice were housed in standard laboratory cages with ad libitum access to food and water, and were acclimated to the vivarium for at least one week prior to testing in a procedure room. On the day of testing, mice were acclimated to the procedure room in their home cages for ≥60 min before administration of test compounds. Test articles were administered at 10 mg/kg by oral gavage and mice were placed immediately thereafter in a clear, polycarbonate box (46×20×20 cm), and HTRs were counted for 30 consecutive minutes, using hand-held tally counters, by two trained observers who were blind to treatment.

[7] = biological target: recombinant human MAO-A (Homo sapiens, UniProt P21397); assay: in vitro; assay type: in vitro ADME; conditions: role: substrate, hrMAO-A 0.02 mg/mL, test compound 1 μM, pH 7.4, 37° C.
recombinant human MAO-A, sequence (P21397 whole entry): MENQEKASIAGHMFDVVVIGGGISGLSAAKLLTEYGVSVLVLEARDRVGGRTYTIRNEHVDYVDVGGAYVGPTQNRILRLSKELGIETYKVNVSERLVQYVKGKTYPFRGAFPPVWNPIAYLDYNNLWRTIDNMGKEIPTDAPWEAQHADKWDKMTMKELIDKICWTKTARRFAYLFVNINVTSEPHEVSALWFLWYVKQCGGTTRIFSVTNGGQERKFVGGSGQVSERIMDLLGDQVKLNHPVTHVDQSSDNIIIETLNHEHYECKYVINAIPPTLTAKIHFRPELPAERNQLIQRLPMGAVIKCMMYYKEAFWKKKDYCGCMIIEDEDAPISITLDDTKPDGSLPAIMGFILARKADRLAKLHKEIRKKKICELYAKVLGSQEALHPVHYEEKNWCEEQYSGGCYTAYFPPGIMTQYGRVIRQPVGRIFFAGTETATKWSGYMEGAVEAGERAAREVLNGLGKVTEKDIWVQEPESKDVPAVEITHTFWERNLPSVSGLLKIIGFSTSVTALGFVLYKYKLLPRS
Description: hrMAO-A and MAO control were purchased from XenoTech. The reaction mixture was prepared as described below. The test compound was added into the reaction mixture at a final concentration of 1 μM. The positive control, kynuramine (25 μM), was run simultaneously with the test compound in a separate reaction. The reaction mixture (without test compounds or kynuramine) was equilibrated in a shaking water bath at 37° C. for 5 minutes. The reaction was initiated by the addition of the test compound or kynuramine, and the mixture was incubated in a shaking water bath at 37° C. Aliquots (150 μL) of the test compound reaction mixture were withdrawn at 0, 5, 10, 20, 30,60, and 120 minutes. Aliquots (150 μL) of the positive control reaction mixture were withdrawn at 0 and 30 minutes. Test compound and kynuramine samples were immediately combined with 150 AL of ice-cold 100% acetonitrile containing 0.1% formic acid and internal standard (0.2 μM metoprolol) to terminate the reaction. The samples were then mixed and centrifuged to precipitate proteins. All samples were assayed by LC-MS/MS. The peak area response ratio (PARR) of analyte to internal standard at each time point was compared to the PARR at time 0 to determine the percent remaining at each time point. Half-lives were calculated using GraphPad software, fitting to a single-phase exponential decay equation.

[8] = biological target: T1, 5-HT2A receptor; assay: Dose-response 5-HT2A functional assay (IP1 formation); assay type: cell-based; conditions: for 5-HT2A functional activity (in words): dose-response
Description: (§3) FIG. 27 is a graph showing the dose-response 5-HT2A functional assay results as a percent of control agonist response for compound II-2; tested in duplicate at the indicated concentrations and the EC50 values were determined by non-linear regression analysis of the concentration-response curves generated with mean replicate values using Hill equation curve fitting;
as §3, with “28” for “27”, “compounds III-2 and IV-21;” for “compound II-2;”, “fitting; and” for “fitting;”
as §1
(§4) The results from tests of 5-HT2A functional activities of this series of compounds were also unexpected in the context of the unusual results observed from competition binding assays. […] Complete dose-response 5-HT2A and 5HT2B functional assays (measuring IP1 formation) were conducted for III-2 and IV-21 by a second, independent laboratory.

[9] = biological target: 5-HT2B receptor (Homo sapiens, UniProt P41595); assay: Dose-response 5-HT2B functional assay (IP1 formation); assay type: cell-based; conditions: for EC50 / 5-HT2B functional activity (in words): IP1 formation; for 5-HT2B functional activity (in words): dose-response; for Emax: percent of control agonist response
5-HT2B receptor, sequence (P41595 whole entry): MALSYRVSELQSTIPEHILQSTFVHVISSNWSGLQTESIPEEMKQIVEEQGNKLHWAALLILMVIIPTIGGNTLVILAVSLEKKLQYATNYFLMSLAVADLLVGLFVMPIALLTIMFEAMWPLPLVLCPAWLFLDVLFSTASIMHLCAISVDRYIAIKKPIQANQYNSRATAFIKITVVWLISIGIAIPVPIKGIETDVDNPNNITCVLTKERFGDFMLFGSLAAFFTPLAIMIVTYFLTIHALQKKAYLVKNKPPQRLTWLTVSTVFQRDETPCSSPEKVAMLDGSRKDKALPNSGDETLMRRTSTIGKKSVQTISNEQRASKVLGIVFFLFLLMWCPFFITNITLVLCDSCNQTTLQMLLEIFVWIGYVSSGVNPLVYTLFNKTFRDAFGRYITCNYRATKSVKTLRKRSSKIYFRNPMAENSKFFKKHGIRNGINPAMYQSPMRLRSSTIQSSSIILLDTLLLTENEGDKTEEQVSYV
Description: as §3, with “29” for “27”, “5-HT2B” for “5-HT2A”, “compounds III-2 and IV-21;” for “compound II-2;”, “fitting.” for “fitting;”
as §1, §4

T1 sequence (P28223 whole entry): as the sequence (P28223 whole entry) above

SMILES: CN(CCc1c[nH]c2ccccc12)[S+]([O-])C(F)(F)F (centres unmarked) [II-15, N-(2-(1H-indol-3-yl)ethyl)-1,1,1-trifluoro-N-methylmethanesulfinamide]
- activation at 0.5 µM [1]: -24.1%
- activation at 50 µM [1]: -36.9%
- 5-HT2A functional activity (in words) ([1]; in vitro screening, II-15: both 500 nM and 50 μM): inverse agonist efficacy
- Ki [2]: > 3000 nM

SMILES: CN(CCc1c[nH]c2ccccc12)CC(F)(F)F [II-19, N-(2-(1H-indol-3-yl)ethyl)-2,2,2-trifluoro-N-methylethan-1-amine]
- half-life at 1 µM [3]: 3.95 min
- competition for [3H]LSD-labeled 5-HT2A receptors [4]: only partial competition

SMILES: CCN(CC)CCc1c[nH]c2ccccc12 [DET, N,N-diethyltryptamine, reference compound]
- oral activity in humans [5]: active orally in humans
- elicitation of HTR (in words) [6]: inactive at eliciting the HTR
- qualitative behavioral changes [6]: accelerated breathing, hyperlocomotion, hiccup responses, and chewing movements of mouth

SMILES: CN(C)CCc1c[nH]c2ccc(OC(F)(F)F)cc12 [IV-3, N,N-dimethyl-2-(5-(trifluoromethoxy)-1H-indol-3-yl) ethan-1-amine]
- half-life at 1 µM [3]: 13.1 min

SMILES: FC(F)(F)CNCCc1c[nH]c2ccccc12 [II-20, N-(2-(1H-indol-3-yl)ethyl)-2,2,2-trifluoroethan-1-amine]
- half-life at 1 µM [3]: 7.63 min
- half-life at 1 µM [7]: > 120 min
- competition for [3H]LSD-labeled 5-HT2A receptors [4]: only partial competition

SMILES: Oc1cccc2[nH]cc(CCN(CCC(F)F)CCC(F)F)c12 [III-2, 3-(2-(bis(3,3-difluoropropyl)amino)ethyl)-1H-indol-4-ol]
- EC50 ([8]; IP1 formation): 383 nM
- 5-HT2A functional activity (in words) ([8]; IP1 formation): low potency, full agonist
- activation at 0.5 µM [1]: 58.3%
- activation at 50 µM [1]: > 50%
- EC50 [9]: 96 nM
- 5-HT2B functional activity (in words) [9]: partial agonist
- Emax [9]: 65%

SMILES: COc1ccc2[nH]cc(CCN(C)CCC(F)(F)F)c2c1 [IV-21, 3,3,3-trifluoro-N-(2-(5-methoxy-1H-indol-3-yl)ethyl)-N-methylpropan-1-amine]
- EC50 ([8]; IP1 formation): > 3000 nM
- EC50 ([8]; dose-response curve had not plateaued at 3 μM): > 3000 nM
- 5-HT2A functional activity (in words) ([8]; IP1 formation): low potency, EC50>3 μM, agonist
- activation at 0.5 µM [1]: 29.5%
- EC50 [9]: 394 nM
- 5-HT2B functional activity (in words) [9]: partial agonist
- Emax [9]: 62%

SMILES: CN(CCc1c[nH]c2cccc(O)c12)CC(F)(F)F [III-13, 3-(2-(methyl (2,2,2-trifluoroethyl)amino)ethyl)-1H-indol-4-ol]
- half-life at 1 µM [3]: 4.5 min

SMILES: COc1ccc2[nH]cc(CCN(C)CC(F)(F)F)c2c1 [IV-40, 2,2,2-trifluoro-N-(2-(5-methoxy-1H-indol-3-yl)ethyl)-N-methylethan-1-amine]
- half-life at 1 µM [3]: 4.55 min
